From patent US20230391845A1, “GLP-1, GIP AND GLUCAGON RECEPTOR TRIPLE AGONISTS” (priority 2020, published 2023)
*1 amine or outer side, *2 acyl side, *3 side chain or, on linkers, in order; H or OH if unused. Where a SMILES comes first, the peptide text is derived from it. Side-chain parts run from the residue outwards. [ ]: non-standard residue; d: D form. The star is where a group is joined. X1 = O=C(O)CCCCCCCCCCCCCCCCCCC(=O)NCC1CCC(C(=O)*)CC1; C20 diacid = O=C(O)CCCCCCCCCCCCCCCCCCC(=O)*; γGlu = O=C(O)[C@H](CCC(=O)[*:2])N[*:1]; εLys = N[C@@H](CCCCN[*:1])C(=O)[*:2]; AEEA = NCCOCCOCC(=O)O; Aib = CC(C)(N)C(=O)O

How the values were obtained:
[1] = Pharmacokinetic study in minipigs, i.v. administration; design: species or system Göttingen minipigs; details: minipig, in vivo, iv
Procedure: The purpose of this example is to determine the half-life in vivo of the triple agonists as described herein after i.v. administration to minipigs, i.e. the prolongation of their time in the body and thereby their time of action. This is done in a pharmacokinetic (PK) study, where the terminal half-life of the triple agonist in question is determined. By terminal half-life is generally meant the period of time it takes to halve a certain plasma concentration, measured after the initial distribution phase.
Female Göttingen minipigs were obtained from Ellegaard Göttingen Minipigs (Dalmose, Denmark) approximately 7-14 months of age and weighing from approximately 16-35 kg were used in the studies. The minipigs were housed individually and fed restrictedly once daily with SDS minipig diet (Special Diets Services, Essex, UK).
After at 3 weeks of acclimatisation two permanent central venous catheters were implanted in vena cava caudalis in each animal. The animals were allowed 1 week recovery after the surgery, and were then used for repeated pharmacokinetic studies with a suitable wash-out period between successive dosings.
The animals were fasted for approximately 18 hours before dosing and from 0 to 4 hours after dosing, but had adlibitum access to water during the whole period.
Intravenous injections (the volume corresponding to usually 1.5-2 nmol/kg, for example 0.1 mL/kg) of the triple agonists were given through one catheter, and blood was sampled at predefined time points for up to 14 days post dosing (preferably through the other catheter). Blood samples (for example 0.8 mL) were collected in 8 mM EDTA buffer and then centrifuged at 4° C. and 1942 g for 10 minutes.
Plasma was pipetted into Micronic tubes on dry ice and kept at −20° C. until analysed for plasma concentration of the triple agonists using ELISA, or a similar antibody-based assay, or LCMS. Individual plasma concentration-time profiles were analysed by a non-compartmental model in Phoenix WinNonLin ver. 6.4. (Pharsight Inc., Mountain View, CA, USA), and the resulting terminal half-lives (harmonic mean) determined.

human GLP-1 receptor = target: T1, human GLP-1 receptor (Homo sapiens, UniProt P43220); experiment: In vitro functional potency (CRE luciferase; whole cells), human GLP-1R; assay type: cell-based; details: BHK CRE luc2P hGLP-1R whole cells; Table 2; read-out: hGLP-1R CRE Luc EC50
T1 construct: expressed in transfected cells; host or cells: BHK cells (parent line BHKTS13) containing CRE luciferase
T1 sequence (P43220 24-463): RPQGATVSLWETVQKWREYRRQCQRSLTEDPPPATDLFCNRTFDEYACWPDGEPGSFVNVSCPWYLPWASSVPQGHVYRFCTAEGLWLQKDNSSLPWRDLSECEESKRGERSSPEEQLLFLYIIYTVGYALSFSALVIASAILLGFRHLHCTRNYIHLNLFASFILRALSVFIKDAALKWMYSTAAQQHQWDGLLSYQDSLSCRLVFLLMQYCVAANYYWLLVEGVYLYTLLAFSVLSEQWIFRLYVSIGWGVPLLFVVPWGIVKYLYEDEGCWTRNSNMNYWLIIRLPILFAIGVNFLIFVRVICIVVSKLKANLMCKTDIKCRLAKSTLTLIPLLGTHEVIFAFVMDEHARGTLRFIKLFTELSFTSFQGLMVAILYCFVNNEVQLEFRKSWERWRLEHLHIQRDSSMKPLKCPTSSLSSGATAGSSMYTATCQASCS

Row | SMILES | half-life ([1]; female, Göttingen) [days] | half-life [1] [days] | EC50 (human GLP-1 receptor) [pM]
1 | CC[C@H](C)[C@H](NC(=O)[C@H](CO)NC(=O)[C@H](Cc1ccc(O)cc1)NC(=O)[C@H](CC(=O)O)NC(=O)[C@H](CO)NC(=O)[C@@H](NC(=O)[C@H](Cc1ccccc1)NC(=O)[C@@H](NC(=O)CNC(=O)[C@H](CCC(N)=O)NC(=O)C(C)(C)NC(=O)[C@@H](N)Cc1ccc(O)cc1)[C@@H](C)O)[C@@H](C)O)C(=O)N[C@@H](Cc1ccc(O)cc1)C(=O)N[C@@H](CC(C)C)C(=O)N[C@@H](CC(=O)O)C(=O)N[C@@H](CCCCNC(=O)COCCOCCNC(=O)COCCOCCNC(=O)CC[C@H](NC(=O)CCCCCCCCCCCCCCCCCCC(=O)O)C(=O)O)C(=O)N[C@@H](CCC(N)=O)C(=O)N[C@@H](C)C(=O)N[C@@H](C)C(=O)NC(C)(C)C(=O)N[C@@H](CCC(=O)O)C(=O)N[C@@H](Cc1ccccc1)C(=O)N[C@H](C(=O)N[C@@H](CC(N)=O)C(=O)N[C@@H](Cc1c[nH]c2ccccc12)C(=O)N[C@@H](CC(C)C)C(=O)N[C@@H](CC(C)C)C(=O)N[C@@H](C)C(=O)NCC(=O)NCC(=O)N1CCC[C@H]1C(=O)N[C@@H](CO)C(=O)N[C@@H](CO)C(=O)NCC(=O)N[C@@H](C)C(=O)N1CCC[C@H]1C(=O)N1CCC[C@H]1C(=O)N1CCC[C@H]1C(=O)N[C@@H](CO)C(N)=O)C(C)C [Compound No. 5] (H-Y[Aib]QGTFTSDYSIYLDK([AEEA-AEEA-γGlu-C20 diacid])QAA[Aib]EFVNWLLAGGPSSGAPPPS-NH2; N-terminus assumed) | 3.54 |  | 
2 | CC[C@H](C)[C@H](NC(=O)[C@H](CO)NC(=O)[C@H](Cc1ccc(O)cc1)NC(=O)[C@H](CC(=O)O)NC(=O)[C@H](CO)NC(=O)[C@@H](NC(=O)[C@H](Cc1ccccc1)NC(=O)[C@@H](NC(=O)CNC(=O)[C@H](CCC(N)=O)NC(=O)C(C)(C)NC(=O)[C@@H](N)Cc1ccc(O)cc1)[C@@H](C)O)[C@@H](C)O)C(=O)N[C@@H](Cc1ccc(O)cc1)C(=O)N[C@@H](CC(C)C)C(=O)N[C@@H](CC(=O)O)C(=O)N[C@@H](CCCCN)C(=O)N[C@@H](CCC(N)=O)C(=O)N[C@@H](C)C(=O)N[C@@H](C)C(=O)NC(C)(C)C(=O)N[C@@H](CCCCNC(=O)COCCOCCNC(=O)COCCOCCNC(=O)CC[C@H](NC(=O)C1CCC(CNC(=O)CCCCCCCCCCCCCCCCCCC(=O)O)CC1)C(=O)O)C(=O)N[C@@H](Cc1ccccc1)C(=O)N[C@H](C(=O)N[C@@H](CCC(N)=O)C(=O)N[C@@H](Cc1c[nH]c2ccccc12)C(=O)N[C@@H](CC(C)C)C(=O)N[C@@H](CC(C)C)C(=O)N[C@@H](CCC(=O)O)C(=O)NCC(=O)NCC(=O)N1CCC[C@H]1C(=O)N[C@@H](CO)C(=O)N[C@@H](CO)C(=O)NCC(=O)N[C@@H](C)C(=O)N1CCC[C@H]1C(=O)N1CCC[C@H]1C(=O)N1CCC[C@H]1C(=O)N[C@@H](CO)C(N)=O)C(C)C (stereo partly drawn) [Compound No. 8] (H-Y[Aib]QGTFTSDYSIYLDKQAA[Aib]K([AEEA-AEEA-γGlu-X1])FVQWLLEGGPSSGAPPPS-NH2; N-terminus assumed) |  | 3.38 | 
3 | CC[C@H](C)[C@H](NC(=O)[C@H](CO)NC(=O)[C@H](Cc1ccc(O)cc1)NC(=O)[C@H](CC(=O)O)NC(=O)[C@H](CO)NC(=O)[C@@H](NC(=O)[C@H](Cc1ccccc1)NC(=O)[C@@H](NC(=O)CNC(=O)[C@H](Cc1c[nH]cn1)NC(=O)C(C)(C)NC(=O)[C@@H](N)Cc1c[nH]cn1)[C@@H](C)O)[C@@H](C)O)C(=O)N[C@@H](Cc1ccc(O)cc1)C(=O)N[C@@H](CC(C)C)C(=O)N[C@@H](CCC(=O)O)C(=O)N[C@@H](CCCCNC(=O)COCCOCCNC(=O)COCCOCCNC(=O)CC[C@H](NC(=O)CCCCCCCCCCCCCCCCCCC(=O)O)C(=O)O)C(=O)N[C@@H](CCCCN)C(=O)N[C@@H](Cc1ccc(O)cc1)C(=O)N[C@@H](C)C(=O)NC(C)(C)C(=O)N[C@@H](CCC(=O)O)C(=O)N[C@@H](Cc1ccccc1)C(=O)N[C@H](C(=O)N[C@@H](CCC(N)=O)C(=O)N[C@@H](Cc1c[nH]c2ccccc12)C(=O)N[C@@H](CC(C)C)C(=O)N[C@@H](CC(C)C)C(=O)N[C@@H](CCC(=O)O)C(=O)NCC(=O)NCC(=O)N1CCC[C@H]1C(=O)N[C@@H](CO)C(=O)N[C@@H](CO)C(=O)NCC(=O)N[C@@H](C)C(=O)N1CCC[C@H]1C(=O)N1CCC[C@H]1C(=O)N1CCC[C@H]1C(=O)N[C@@H](CO)C(N)=O)C(C)C [Compound No. 39] (H-H[Aib]HGTFTSDYSIYLEK([AEEA-AEEA-γGlu-C20 diacid])KYA[Aib]EFVQWLLEGGPSSGAPPPS-NH2) | 2.75 |  | 4.4
4 | CC(C)C[C@H](NC(=O)[C@H](CC(C)C)NC(=O)[C@H](Cc1c[nH]c2ccccc12)NC(=O)[C@H](CCC(N)=O)NC(=O)[C@@H](NC(=O)[C@H](Cc1ccccc1)NC(=O)[C@H](CCC(=O)O)NC(=O)C(C)(C)NC(=O)[C@H](C)NC(=O)[C@H](C)NC(=O)[C@H](CCC(N)=O)NC(=O)[C@H](CCCCNC(=O)[C@@H](N)CCCCNC(=O)[C@@H](N)CCCCNC(=O)CC[C@H](NC(=O)CCCCCCCCCCCCCCCCCCC(=O)O)C(=O)O)NC(=O)[C@H](CCC(=O)O)NC(=O)[C@H](CC(C)C)NC(=O)[C@H](CC(C)C)NC(=O)[C@H](Cc1ccc(O)cc1)NC(=O)[C@H](CO)NC(=O)[C@H](Cc1ccc(O)cc1)NC(=O)[C@H](CC(=O)O)NC(=O)[C@H](CO)NC(=O)[C@@H](NC(=O)[C@H](Cc1ccccc1)NC(=O)[C@@H](NC(=O)CNC(=O)[C@H](Cc1c[nH]cn1)NC(=O)C(C)(C)NC(=O)[C@@H](N)Cc1c[nH]cn1)[C@@H](C)O)[C@@H](C)O)C(C)C)C(=O)N[C@@H](CCC(=O)O)C(=O)NCC(=O)NCC(=O)N1CCC[C@H]1C(=O)N[C@@H](CO)C(=O)N[C@@H](CO)C(=O)NCC(=O)N[C@@H](C)C(=O)N1CCC[C@H]1C(=O)N1CCC[C@H]1C(=O)N1CCC[C@H]1C(=O)N[C@@H](CO)C(N)=O [Compound No. 42] (H-H[Aib]HGTFTSDYSYLLEK([εLys-εLys-γGlu-C20 diacid])QAA[Aib]EFVQWLLEGGPSSGAPPPS-NH2; N-terminus assumed) | 2.75 |  | 
5 | CC[C@H](C)[C@H](NC(=O)[C@H](CO)NC(=O)[C@H](Cc1ccc(O)cc1)NC(=O)[C@H](CC(=O)O)NC(=O)[C@H](CO)NC(=O)[C@@H](NC(=O)[C@H](Cc1ccccc1)NC(=O)[C@@H](NC(=O)CNC(=O)[C@H](CCC(N)=O)NC(=O)C(C)(C)NC(=O)[C@@H](N)Cc1ccc(O)cc1)[C@@H](C)O)[C@@H](C)O)C(=O)N[C@@H](Cc1ccc(O)cc1)C(=O)N[C@@H](CC(C)C)C(=O)N[C@@H](CC(=O)O)C(=O)N[C@@H](CCCCNC(=O)COCCOCCNC(=O)COCCOCCNC(=O)CC[C@H](NC(=O)C1CCC(CNC(=O)CCCCCCCCCCCCCCCCCCC(=O)O)CC1)C(=O)O)C(=O)N[C@@H](CCC(N)=O)C(=O)N[C@@H](C)C(=O)N[C@@H](C)C(=O)NC(C)(C)C(=O)N[C@@H](CCC(=O)O)C(=O)N[C@@H](Cc1ccccc1)C(=O)N[C@H](C(=O)N[C@@H](CC(N)=O)C(=O)N[C@@H](Cc1c[nH]c2ccccc12)C(=O)N[C@@H](CC(C)C)C(=O)N[C@@H](CC(C)C)C(=O)N[C@@H](C)C(=O)NCC(=O)NCC(=O)N1CCC[C@H]1C(=O)N[C@@H](CO)C(=O)N[C@@H](CO)C(=O)NCC(=O)N[C@@H](C)C(=O)N1CCC[C@H]1C(=O)N1CCC[C@H]1C(=O)N1CCC[C@H]1C(=O)N[C@@H](CO)C(N)=O)C(C)C (stereo partly drawn) [Compound No. 6] (H-Y[Aib]QGTFTSDYSIYLDK([AEEA-AEEA-γGlu-X1])QAA[Aib]EFVNWLLAGGPSSGAPPPS-NH2) |  | 3.46 | 
